{"source": "patent US6403656B1", "about": "“Use of ppar-γ activators in dermatology” (Galderma Research & Development S.N.C, priority 1997, dated 2002)", "key": {"PPARα": {"target": "T1, PPARα (Homo sapiens, UniProt Q07869)", "T1 sequence (Q07869 1-468)": "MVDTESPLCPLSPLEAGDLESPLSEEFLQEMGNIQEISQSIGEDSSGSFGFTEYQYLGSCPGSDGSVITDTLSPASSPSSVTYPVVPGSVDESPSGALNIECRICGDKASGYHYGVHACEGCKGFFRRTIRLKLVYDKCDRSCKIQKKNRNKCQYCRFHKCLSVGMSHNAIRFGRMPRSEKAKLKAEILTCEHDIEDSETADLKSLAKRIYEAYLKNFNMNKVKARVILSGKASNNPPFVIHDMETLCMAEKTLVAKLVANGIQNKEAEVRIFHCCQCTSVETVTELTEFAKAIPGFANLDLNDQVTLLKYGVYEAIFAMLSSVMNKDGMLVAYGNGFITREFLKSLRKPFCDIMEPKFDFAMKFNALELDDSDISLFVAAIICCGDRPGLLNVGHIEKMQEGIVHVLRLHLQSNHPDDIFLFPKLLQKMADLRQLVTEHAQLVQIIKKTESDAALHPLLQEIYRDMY", "assay": "Transactivation test (luciferase reporter, cotransfected HeLa cells) via PPARα", "conditions": "read-out: AC50 (nM) − PPARα; HeLa cells cotransfected with receptor expression vector and PPRE-luciferase reporter, treated for 24 hours"}, "keratinocytes": {"tested_on": "keratinocytes", "assay": "Determination of the keratinocyte proliferation (BrdU incorporation)", "conditions": "statement in words"}, "PPARγ": {"target": "T2, PPARγ (Homo sapiens, UniProt P37231)", "T2 sequence (P37231 1-505)": "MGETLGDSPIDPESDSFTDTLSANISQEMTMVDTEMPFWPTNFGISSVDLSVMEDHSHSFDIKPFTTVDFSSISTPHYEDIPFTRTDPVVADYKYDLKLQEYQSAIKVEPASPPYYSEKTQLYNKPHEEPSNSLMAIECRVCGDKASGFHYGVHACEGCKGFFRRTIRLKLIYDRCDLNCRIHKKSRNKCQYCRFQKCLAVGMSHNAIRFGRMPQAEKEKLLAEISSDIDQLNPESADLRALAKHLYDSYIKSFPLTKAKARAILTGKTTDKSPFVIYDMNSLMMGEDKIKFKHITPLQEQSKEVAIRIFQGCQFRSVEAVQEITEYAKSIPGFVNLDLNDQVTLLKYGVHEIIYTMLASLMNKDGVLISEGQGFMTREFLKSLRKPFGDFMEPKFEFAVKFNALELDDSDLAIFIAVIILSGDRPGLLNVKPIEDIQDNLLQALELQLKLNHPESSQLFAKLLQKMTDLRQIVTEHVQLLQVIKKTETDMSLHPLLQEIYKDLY", "assay": "Transactivation test (luciferase reporter, cotransfected HeLa cells) via PPARγ"}}}
{"smiles": "CCOC(Cc1ccc(OCCN(C)c2nc3ccccc3o2)cc1)C(=O)O", "note": "(single isomer, unassigned; (-)) [Compound D, (−)-3-{4-[2-(benzooxazol-2-ylmethylamino)-ethoxy]phenyl}-2-ethyoxypropionic acid]", "values": [{"measurement": "AC50", "setting": "PPARα", "value": 1450, "unit": "nM"}]}
{"smiles": "CCOC(Cc1ccc(OCCN(C)c2nc3ccccc3o2)cc1)C(=O)O", "note": "(single isomer, unassigned; (+)) [Compound C, (+)-3-{4-[2-(benzoxazol-2-ylmethylamino)-ethoxy]phenyl}-2-ethyoxypropionic acid]", "values": [{"measurement": "AC50", "setting": "PPARα", "value": 4600, "unit": "nM"}]}
{"smiles": "CCCCC/C=C/C=C1/C(=O)C=CC1C/C=C\\CCCC(=O)O", "note": "(stereo not shown) [Compound E, 15-deoxy-Δ^12,14-prostaglandin J2(15-d PGJ2)]", "values": [{"measurement": "inhibitory activity on the proliferation of keratinocytes", "setting": "keratinocytes", "value": "weak, or even no inhibitory activity"}, {"measurement": "AC50", "setting": "PPARα", "value": 2200, "unit": "nM"}, {"measurement": "R1 (ratio of AC50 relative to PPAR-γ over AC50 relative to PPARα)", "setting": "PPARγ; AC50 PPARγ / AC50 PPARα", "value": 0.082}, {"measurement": "AC50", "setting": "PPARγ; read-out: AC50 (nM) − PPARγ, HeLa cells cotransfected with receptor expression vector and PPRE-luciferase reporter, treated for 24 hours", "value": 180, "unit": "nM"}]}
{"smiles": "CN(CCOc1ccc(CC2SC(=O)NC2=O)cc1)c1ccccn1", "note": "(stereo not shown) [Compound A, 5-{4-[2-(methylpyrid-2-ylamino)-ethoxy]benzyl}thiazolidine-2,4-dione]", "values": [{"measurement": "inhibitory activity on the proliferation of keratinocytes", "setting": "keratinocytes", "value": "weak, or even no inhibitory activity"}]}
